Assay results taken from publication PMC7790557, “Pleiotropic Properties of Amphiphilic Dihydropyridines, Dihydropyridones, and Aminovinylcarbonyl Compounds” (Oxidative Medicine and Cellular Longevity, 2020).
Where two headings read alike, the source gives them in different places.

Tests used:
[1] = system: NIH3T3 (mouse embryonic fibroblast); assay: Basal cytotoxicity test, Neutral Red Uptake (NRU) assay; settings: for IC50: Mus musculus
Method: The NRU cytotoxicity assay procedure is based on the ability of viable cells to incorporate and bind neutral red, a supravital dye.
Balb/c NIH 3T3 (mouse Swiss albino embryo fibroblast, ATCC® CRL-1658™) cells (9000 cells/well) were placed into 96-well plates for 24 h in Dulbecco's modified Eagle's medium (DMEM) containing 5% fetal bovine serum. Then, the cells were exposed to the test compound over a range of seven concentrations (1000, 316, 100, 31, 10, 3, and 1 μg/ml) for 24 h. Untreated cells were used as a control. After 24 h, the medium was removed from all plates. Then, 150 μl of neutral red solution was added (0.05 mg/ml NR in DMEM 24 h preincubated at 37°C and then filtered before use through a 0.22 μm syringe filter). Plates were incubated for 3 h, and then, the cells were washed three times with PBS. The dye within viable cells was released by extraction with a mixture of acetic acid, ethanol, and water (1 : 50 : 49). The absorbance of neutral red was measured using a spectrophotometer multiplate reader (Tecan Infinite M1000) at 540 nm. The optical density (OD) was calculated using the following formula: OD (treated cells) × 100/OD (control cells). The IC50 values were calculated using the GraphPad Prism® 3.0 program.

[2] = in vitro; settings: mouse, NIH3T3 LD50, Table 3; calculated from NIH3T3 IC50 by regression formula
Source text: (§1) Data from the in vitro tests were used for estimating the starting dose for acute oral systemic toxicity tests in the rodent. The in vivo starting dose is an estimated LD50 value calculated by inserting the in vitroIC50 value into a regression formula: log LD50 (mM/kg) = 0.439 log IC50 (mM) + 0.621 [23–25]. […] Using an alternative in vitro method allows the comparison between possibly toxic new compounds and selecting compounds for further study vastly reducing the number of animal experiments.
(§2) Additionally, the compound influence on “normal” mouse fibroblasts (NIH3T3) was estimated for the studies of structure-activity relationships and exploration of the effect of substituents.

[3] = system: MH-22A (mouse hepatoma); assay: Cytotoxicity, crystal violet (CV) assay, MH-22A; format: cell-based; settings: Mus musculus, read-out: MH-22A IC50 (CV)
Method: (§3) After incubation, the staining solution was removed. The cells were washed 4 times with water.

[4] = system: HT-1080 (human lung fibrosarcoma); assay: Cytotoxicity, MTT assay, HT-1080; format: cell-based; settings: Homo sapiens, read-out: HT-1080 IC50 (MTT)
Source text: (§4) Reduction takes place only when mitochondrial reductase enzymes are active, and therefore, conversion is directly related to the number of viable cells which can be quantified by the absorbance of the solution (between λ = 500 and 600 nm) using a spectrophotometer.

[5] = system: MH-22A (mouse hepatoma); assay: Cytotoxicity, MTT assay, MH-22A; format: cell-based; settings: Mus musculus, read-out: MH-22A IC50 (MTT)
Source text: as §4

[6] = system: HT-1080 (human lung fibrosarcoma); assay: Cytotoxicity, crystal violet (CV) assay, HT-1080; settings: Homo sapiens, HT-1080, 72 h, read-out: HT-1080 IC50 (CV)
[7] = in vitro; format: cell-based; settings: human and mouse; summarises both cell lines, CV and MTT; read-out: cytotoxicity on cancer cell lines HT-1080 and MH-22A
Method: as §3

[8] = Electrochemical oxidation potentials, cyclic voltammetry; format: physicochemical; settings: glassy carbon electrode, dry acetonitrile; for Oxidation potential E^ox: Table 4, vs Ag/Ag+, 0.1 M TBABF4, tested as perchlorates; for electrooxidation potential: cyclic voltammetry
Method: A stationary glassy carbon disk electrode (d = 0.5 mm) served as the working electrode, while the counterelectrode was a Pt wire. The oxidation potentials were measured relative to a Ag/Ag^+ reference electrode. Acetonitrile was dried over P2O5 and distilled; the distillate was stored over CaH2 and redistilled just before use. Recrystallized tetrabutylammonium tetrafluoroborate (TBABF4) was used as a supporting electrolyte at 0.1 M concentration.
The electrochemical oxidation of the selected compounds studied in this work was performed by cyclic voltammetry on a stationary glassy carbon electrode in dry acetonitrile; the data is presented in Table 4. The perchlorates of the tested amphiphiles were obtained from the corresponding bromides by treating their abs. MeOH solutions with excess of conc. HClO4 according to the procedure elaborated by Turovska et al..

[9] = Cytotoxicity, crystal violet (CV) assay, HT-1080; settings: human, HT-1080 cells (fibrosarcoma)
[10] = system: NIH3T3; assay: in vitro; settings: for LD50 (calculated, NIH3T3): mouse
Source text: as §1, §2

[11] = NIH3T3, 24 h, read-out: NIH3T3 IC50 (NR), Table 3, 24 h exposure
[12] = HT-1080, Table 3, 72 h exposure
[13] = NIH3T3, 24 h, read-out: NIH3T3 IC50 (NR), Table 1, 24 h exposure
[14] = HT-1080, Table 1, 72 h exposure
[15] = NIH3T3, 24 h, read-out: NIH3T3 IC50 (NR)

| Structure (SMILES) | IC50 [1, 11] | LD50 [2] | IC50 ([3]; Table 3, 72 h exposure) | IC50 [6] | IC50 [1, 13] | IC50 ([3]; Table 1, 72 h exposure) | IC50 [4, 14] | IC50 ([5]; Table 1, 72 h exposure) | also measured |
| --- | --- | --- | --- | --- | --- | --- | --- | --- | --- |
| CCCCCCCCCCCCCCCCOC(=O)/C=C(\N)C[N+](C)(C)CCCCCC [compound 43, (Z,E)-N-(2-Amino-4-(hexadecyloxy)-4-oxobut-2-en-1-yl)-N,N-dimethylhexan-1-aminium chloride] | 21 ± 6 µg/mL | 538 mg/kg | 2 ± 0.2 µg/mL | 3 ± 0.6 µg/mL | – | – | – | – | IC50 [4, 12]: 2 ± 0.4 µg/mL; IC50 ([5]; Table 3, 72 h exposure): 1 ± 0.2 µg/mL |
| CCCCCCCCCCCCOC(=O)C1=C(C[n+]2ccccc2)NC(C[n+]2ccccc2)=C(C(=O)OCCCCC(F)(F)C(F)(F)C(F)(F)C(F)(F)C(F)(F)C(F)(F)C(F)(F)C(F)(F)F)C1c1ccccc1 (stereo not drawn) [compound 23, Dodecyl 5,5,6,6,7,7,8,8,9,9,10,10,11,11,12,12,12-heptadecafluorododecyl 1,4-dihydro-2,6-dimethyl-4-phenylpyridine-3,5-dicarboxylate-2,6-dipyridinium dibromide] | – | – | – | 50 ± 6 µg/mL | 477 ± 25 µg/mL | 47 ± 2 µg/mL | 47 ± 8 µg/mL | 75 ± 11 µg/mL | IC50 [7]: 47 to 75 µg/mL; Oxidation potential E^ox [8]: 1.70 V; electrooxidation potential [8]: 1.69–1.70 V |
| CCCCCCCCCCCCOC(=O)C1=C(C[n+]2ccccc2)NC(C[n+]2ccccc2)=C(C(=O)OCCCCCCCCCCCC)C1c1ccccc1 [compound 11, 1,1'-((3,5-Bis((dodecyloxy)carbonyl)-4-phenyl-1,4-dihydropyridine-2,6-diyl)bis(methylene))bis(pyridin-1-ium) ditetrafluoroborate] | – | – | – | 31 ± 4 µg/mL | 47 ± 8 µg/mL | 30 ± 6 µg/mL | 28 ± 9 µg/mL | 30 ± 9 µg/mL | IC50 at 72 h [9]: ~30 µg/mL |
| O=C(OCCCCC(F)(F)C(F)(F)C(F)(F)C(F)(F)C(F)(F)C(F)(F)C(F)(F)C(F)(F)F)C1=C(C[n+]2ccccc2)NC(C[n+]2ccccc2)=C(C(=O)OCCCCC(F)(F)C(F)(F)C(F)(F)C(F)(F)C(F)(F)C(F)(F)C(F)(F)C(F)(F)F)C1c1ccccc1 [compound 24, Bis(5,5,6,6,7,7,8,8,9,9,10,10,11,11,12,12,12-heptadecafluorododecyl) 1,4-dihydro-2,6-dimethyl-4-phenylpyridine-3,5-dicarboxylate-2,6-dipyridinium bromide] | – | – | – | 100 ± 11 µg/mL | > 1000 µg/mL | > 100 µg/mL | 100 ± 9 µg/mL | > 100 µg/mL | IC50 [7]: ~100 µg/mL; Oxidation potential E^ox [8]: 1.69 V; electrooxidation potential [8]: 1.69–1.70 V |
| CCCCCCCCCCCCOC(=O)C1=C(C[n+]2ccccc2)NC(C[n+]2ccccc2)=C(C(=O)OCCCCCCCCCCCC)C1c1ccc(C2C(C(=O)OCCCCCCCCCCCC)=C(C[n+]3ccccc3)NC(C[n+]3ccccc3)=C2C(=O)OCCCCCCCCCCCC)cc1.[Br-].[Br-].[Br-].[Br-] [compound 26, 1,1',1'',1'''-((1,4-Phenylenebis(3,5-bis((dodecyloxy)carbonyl)-1,4-dihydropyridine-4,2,6-triyl))tetrakis(methylene))tetrakis(pyridin-1-ium) tetrabromide] | – | – | – | 12 ± 4 µg/mL | – | – | – | – | IC50 [1, 15]: 717 ± 56 µg/mL; IC50 ([3]; 72 h): 27 ± 6 µg/mL; IC50 ([4]; HT-1080, 72 h): 14 ± 2 µg/mL; IC50 ([5]; 72 h): 21 ± 4 µg/mL; IC50 at 72 h [7]: 12 to 27 µg/mL |
| CCCCCCCCCCCCOC(=O)/C=C(\N)C[n+]1ccccc1 [compound 47, (Z,E)-1-(2-Amino-4-(dodecyloxy)-4-oxobut-2-en-1-yl)pyridin-1-ium iodide] | 14 ± 9 µg/mL | 403 mg/kg | 2 ± 0.1 µg/mL | 3 ± 0.4 µg/mL | – | – | – | – | – |
| O=C1CC(c2ccccc2)C(C(=O)OCCCCC(F)(F)C(F)(F)C(F)(F)C(F)(F)C(F)(F)C(F)(F)C(F)(F)C(F)(F)F)=C([P+](c2ccccc2)(c2ccccc2)c2ccccc2)N1.[Br-] (stereo not drawn) [compound 30, (3-(((5,5,6,6,7,7,8,8,9,9,10,10,11,11,12,12,12-Heptadecafluorododecyl)oxy)carbonyl)-6-oxo-4-phenyl-1,4,5,6-tetrahydropyridin-2-yl)triphenylphosphonium bromide] | – | – | – | 10 ± 2 µg/mL | – | – | – | – | IC50 ([1]; NIH3T3, 24 h, read-out: NIH3T3 IC50 (NR), Table 2, 24 h exposure): 127 ± 11 µg/mL; times less cytotoxic than dihydropyridone 31 in the NIH3T3 cells ([10]; from LD50 1779 mg/kg versus 604 mg/kg): about 3 times; IC50 ([3]; Table 2, 72 h exposure): 30 ± 11 µg/mL; IC50 ([4]; HT-1080, Table 2, 72 h exposure): 9 ± 2 µg/mL; IC50 ([5]; Table 2, 72 h exposure): 39 ± 5 µg/mL |
| CCOC(=O)C1=C(C[n+]2ccccc2)NC(C[n+]2ccccc2)=C(C(=O)OCC)C1C(=O)OC.[Br-].[Br-] [compound 8, 1,1'-((3,5-Bis(ethoxycarbonyl)-4-(methoxycarbonyl)-1,4-dihydropyridine-2,6-diyl)-bis(methylene))bis(pyridin-1-ium) dibromide] | – | – | – | > 100 µg/mL | – | > 100 µg/mL | > 100 µg/mL | > 100 µg/mL | IC50 [1, 15]: > 1000 µg/mL; LD50 (calculated, NIH3T3) [10]: > 2000 mg/kg |
| CCOC(=O)C1=C(C[n+]2ccccc2)NC(C[n+]2ccccc2)=C(C(=O)OCC)C1c1ccccc1C(F)(F)F.[Br-].[Br-] [compound 6, 1,1'-((3,5-Bis(ethoxycarbonyl)-4-(2-(trifluoromethyl)phenyl)-1,4-dihydropyridine-2,6-diyl)bis(methylene))bis(pyridin-1-ium) dibromide] | – | – | – | > 100 µg/mL | – | > 100 µg/mL | > 100 µg/mL | > 100 µg/mL | IC50 [1, 15]: > 1000 µg/mL; LD50 (calculated, NIH3T3) [10]: > 2000 mg/kg |
| CCCCCCCCCCCCCCCCOC(=O)/C=C(\N)C[N+](C)(C)CCCCCCCCCCCC [compound 44, (Z,E)-N-(2-Amino-4-(hexadecyloxy)-4-oxobut-2-en-1-yl)-N,N-dimethyldodecan-1-aminium bromide] | – | – | 25 ± 3 µg/mL | 3 ± 0.4 µg/mL | – | – | – | – | IC50 ([1]; NIH3T3, read-out: IC50 in NIH3T3 cell lines): ~30 µg/mL; NIH3T3 IC50 (NR) ([1]; Table 3, 24 h exposure): 31 ± 8 µg/mL; NIH3T3 LD50 ([10]; Table 3, calculated from NIH3T3 IC50 by regression formula): 697 mg/kg; IC50 [4, 12]: 3 ± 0.3 µg/mL; IC50 ([5]; Table 3, 72 h exposure): 28 ± 6 µg/mL; Oxidation potential E^ox [8]: 1.24 V; electrooxidation potential [8]: 1.24 V |
| CCCCCCCCCCCCCCCCOC(=O)/C=C(\N)C[N+](C)(C)CCCCCCCCCCCC [compound 45, (Z,E)-N-(2-Amino-4-(hexadecyloxy)-4-oxobut-2-en-1-yl)-N,N-dimethyldodecan-1-aminium chloride] | 25 ± 9 µg/mL | 573 mg/kg | – | – | – | – | – | – | IC50 in NIH3T3 cell lines [1]: around 30 μg/ml |
| CCCCCCCCCCCC[N+](C)(C)C/C(N)=C/C(=O)OCCCCCCCCCC [compound 48, (Z,E)-N-(2-Amino-4-(decyloxy)-4-oxobut-2-en-1-yl)-N,N-dimethyldodecan-1-aminium chloride] | 17 ± 3 µg/mL | 485 mg/kg | 2 ± 0.2 µg/mL | 3 ± 0.4 µg/mL | – | – | – | – | – |
| CCCCCCCCCCCCOC(=O)C1=C(C[N+](C)(C)C2CCCCC2)NC(C[N+](C)(C)C2CCCCC2)=C(C(=O)OCCCCCCCCCCCC)C1c1ccccc1.[O-][Cl+3]([O-])([O-])[O-].[O-][Cl+3]([O-])([O-])[O-] [compound 17, N,N'-((3,5-Bis((dodecyloxy)carbonyl)-4-phenyl-1,4-dihydropyridine-2,6-diyl)bis(methylene))bis(N,N-dimethylcyclohexanaminium) diperchlorate] | – | – | – | 35 ± 9 µg/mL | 59 ± 12 µg/mL | 54 ± 16 µg/mL | 23 ± 3 µg/mL | 35 ± 9 µg/mL | IC50 [7]: 23 to 54 µg/mL |
